# Source: PubChem BioAssay AID1963874 (Molecular Pharmacology Branch, DTP, NCI, 2024)
# Tested on: 253994-281-T-J1-PDC KRAS-mutant spheroids with HUVEC/MSC, viability
# Experiment: Anticancer human tumor 253994-281-T-J1-PDC patient-derived colorectal carcinoma cell line growth inhibition [KRAS2]
# Settings: for IC50: curve of first compound; for viability, T/C: stronger effect = lower value
# Procedure, shortened: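 KRAS-mutant tumor cells were grown as spheroids with HUVEC endothelial cells and human MSCs as stroma. Targeted agents were tested alone and with KRAS pathway inhibitors. Doses started at or near clinical Cmax, or 10 microM, descending half-log.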
# [1] = second compound 0.0316 µM, first compound 0.0316 µM
# [2] = second compound 0.0316 µM, first compound 0.1 µM
# [3] = second compound 0.0316 µM, first compound 0.316 µM
# [4] = second compound 0.0316 µM, first compound 1 µM
# [5] = second compound 0.0316 µM, first compound 3.16 µM
# [6] = second compound 0.0316 µM, first compound 10 µM
# [7] = second compound 0.1 µM, first compound 0.0316 µM
# [8] = second compound 0.1 µM, first compound 0.1 µM
# [9] = second compound 0.1 µM, first compound 0.316 µM
# [10] = second compound 0.1 µM, first compound 1 µM
# [11] = second compound 0.1 µM, first compound 3.16 µM
# [12] = second compound 0.1 µM, first compound 10 µM
# [13] = second compound 0.316 µM, first compound 0.0316 µM
# [14] = second compound 0.316 µM, first compound 0.1 µM
# [15] = second compound 0.316 µM, first compound 0.316 µM
# [16] = second compound 0.316 µM, first compound 1 µM
# [17] = second compound 0.316 µM, first compound 3.16 µM
# [18] = second compound 0.316 µM, first compound 10 µM
# [19] = second compound 1 µM, first compound 0.0316 µM
# [20] = second compound 1 µM, first compound 0.1 µM
# [21] = second compound 1 µM, first compound 0.316 µM
# [22] = second compound 1 µM, first compound 1 µM
# [23] = second compound 1 µM, first compound 3.16 µM
# [24] = second compound 1 µM, first compound 10 µM
# [25] = second compound 3.16 µM, first compound 0.0316 µM
# [26] = second compound 3.16 µM, first compound 0.1 µM
# [27] = second compound 3.16 µM, first compound 0.316 µM
# [28] = second compound 3.16 µM, first compound 1 µM
# [29] = second compound 3.16 µM, first compound 3.16 µM
# [30] = second compound 3.16 µM, first compound 10 µM
# 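Also: spheroids exposed to agents for seven days before readout.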
# 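For viability, T/C in this document: percent of DMSO vehicle control viability.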
Compound,IC50 (second compound 0.0316 µM) [nM],IC50 (second compound 0.1 µM) [nM],IC50 (second compound 0.316 µM) [nM],IC50 (second compound 1 µM) [nM],IC50 (second compound 3.16 µM) [nM],"viability, T/C [1] [%]","viability, T/C [2] [%]","viability, T/C [3] [%]","viability, T/C [4] [%]","viability, T/C [5] [%]","viability, T/C [6] [%]","viability, T/C [7] [%]","viability, T/C [8] [%]","viability, T/C [9] [%]","viability, T/C [13] [%]","viability, T/C [14] [%]","viability, T/C [19] [%]","viability, T/C [20] [%]","viability, T/C [25] [%]","viability, T/C [26] [%]",other results
COc1cc(Nc2ncc3c(n2)-c2ccc(Cl)cc2C(c2c(F)cccc2OC)=NC3)ccc1C(=O)O + C=CC(=O)N1CCN(c2nc(OCC3CCCN3C)nc3c2CCN(c2cccc4cccc(C)c24)C3)CC1CC#N,89.8,> 10000,< 31.6,> 10000,< 31.6,74.5,42.8,39,48.5,50,57,76.6,36.6,38.9,60.9,35.9,70.1,39.5,17.1,8.06,"viability, T/C [10]: 40.7%; viability, T/C [11]: 54.2%; viability, T/C [12]: 64.4%; viability, T/C [15]: 32.6%; viability, T/C [16]: 45.9%; viability, T/C [17]: 50.4%; viability, T/C [18]: 55.1%; viability, T/C [21]: 36%; viability, T/C [22]: 40.3%; viability, T/C [23]: 60.6%; viability, T/C [24]: 58.4%; viability, T/C [27]: 5.83%; viability, T/C [28]: 20.6%; viability, T/C [29]: 25.9%; viability, T/C [30]: 25.9%"
COc1cc2nccc(Oc3ccc(NC(=O)C4(C(=O)Nc5ccc(F)cc5)CC4)cc3)c2cc1OC + C=CC(=O)N1CCN(c2nc(OCC3CCCN3C)nc3c2CCN(c2cccc4cccc(C)c24)C3)CC1CC#N,> 10000,> 10000,> 10000,7140,166,88.8,104,81.8,91.1,92.2,69.8,101,101,80.4,97.8,99.5,97.1,96.5,62.7,65.5,"viability, T/C [10]: 79.5%; viability, T/C [11]: 87.6%; viability, T/C [12]: 71.1%; viability, T/C [15]: 89.6%; viability, T/C [16]: 97.6%; viability, T/C [17]: 87.5%; viability, T/C [18]: 50.3%; viability, T/C [21]: 84.8%; viability, T/C [22]: 92.2%; viability, T/C [23]: 88.9%; viability, T/C [24]: 33.9%; viability, T/C [27]: 34.6%; viability, T/C [28]: 20.4%; viability, T/C [29]: 18.9%; viability, T/C [30]: 0.21%"
Cn1ncnc1[C@H]1c2n[nH]c(=O)c3cc(F)cc(c23)N[C@@H]1c1ccc(F)cc1 + C=CC(=O)N1CCN(c2nc(OCC3CCCN3C)nc3c2CCN(c2cccc4cccc(C)c24)C3)CC1CC#N,> 100,> 100,> 100,> 100,0.431,100,92.8,,,,,97.2,92.8,,96.2,84.1,93.4,85.7,21,17.7,"viability, T/C (second compound 0.0316 µM, first compound 0.000316 µM): 93.7%; viability, T/C (second compound 0.0316 µM, first compound 0.001 µM): 93.7%; viability, T/C (second compound 0.0316 µM, first compound 0.00316 µM): 96.8%; viability, T/C (second compound 0.0316 µM, first compound 0.01 µM): 105%; viability, T/C (second compound 0.1 µM, first compound 0.000316 µM): 94.8%; viability, T/C (second compound 0.1 µM, first compound 0.001 µM): 93.1%; viability, T/C (second compound 0.1 µM, first compound 0.00316 µM): 96.7%; viability, T/C (second compound 0.1 µM, first compound 0.01 µM): 86.8%; viability, T/C (second compound 0.316 µM, first compound 0.000316 µM): 95.8%; viability, T/C (second compound 0.316 µM, first compound 0.001 µM): 105%; viability, T/C (second compound 0.316 µM, first compound 0.00316 µM): 98.4%; viability, T/C (second compound 0.316 µM, first compound 0.01 µM): 88.4%; viability, T/C (second compound 1 µM, first compound 0.000316 µM): 96.8%; viability, T/C (second compound 1 µM, first compound 0.001 µM): 86.7%; viability, T/C (second compound 1 µM, first compound 0.00316 µM): 91.8%; viability, T/C (second compound 1 µM, first compound 0.01 µM): 88.9%; viability, T/C (second compound 3.16 µM, first compound 0.000316 µM): 53.9%; viability, T/C (second compound 3.16 µM, first compound 0.001 µM): 39.2%; viability, T/C (second compound 3.16 µM, first compound 0.00316 µM): 28.2%; viability, T/C (second compound 3.16 µM, first compound 0.01 µM): 13.3%"
